# Assay results from publication PMC4255142 (Bioorganic & medicinal chemistry letters, 2014).
# How the values were obtained:
# [1] = molecular target: T1, holocarboxylase synthetase (HLCS) (Homo sapiens, UniProt P50747); test: Competition studies with biotin; assay type: biochemical; details: for Mechanism of HLCS inhibition: competition studies with biotin; for apparent Vmax with inhibitor: 250 μM inhibitor, biotin varied 0-320 μM, n=4
# T1 sequence (P50747 1-726): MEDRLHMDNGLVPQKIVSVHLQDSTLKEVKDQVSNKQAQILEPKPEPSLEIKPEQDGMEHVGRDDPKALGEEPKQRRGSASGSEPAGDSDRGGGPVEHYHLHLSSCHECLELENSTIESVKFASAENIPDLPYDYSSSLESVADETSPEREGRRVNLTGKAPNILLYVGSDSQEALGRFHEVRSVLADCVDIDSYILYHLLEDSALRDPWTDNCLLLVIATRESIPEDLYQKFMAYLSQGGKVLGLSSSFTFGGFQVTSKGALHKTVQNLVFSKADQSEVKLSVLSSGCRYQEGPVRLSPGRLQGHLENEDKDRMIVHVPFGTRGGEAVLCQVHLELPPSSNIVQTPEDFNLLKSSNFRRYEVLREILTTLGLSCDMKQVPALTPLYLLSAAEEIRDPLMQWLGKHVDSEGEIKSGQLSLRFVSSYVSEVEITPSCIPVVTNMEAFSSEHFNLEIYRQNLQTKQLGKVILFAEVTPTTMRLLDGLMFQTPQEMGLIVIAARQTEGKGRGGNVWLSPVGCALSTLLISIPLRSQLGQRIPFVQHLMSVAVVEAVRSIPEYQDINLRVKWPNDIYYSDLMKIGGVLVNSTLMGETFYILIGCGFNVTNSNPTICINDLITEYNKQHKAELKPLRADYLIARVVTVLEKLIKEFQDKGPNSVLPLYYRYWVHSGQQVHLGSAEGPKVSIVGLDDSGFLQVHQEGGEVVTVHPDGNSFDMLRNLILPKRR
# [2] = molecular target: T1, holocarboxylase synthetase (HLCS); test: Inhibition of HLCS-catalysed biotinylation of recombinant p67; assay type: biochemical; details: data not shown
Mechanism of HLCS inhibition [1],Mechanism of HLCS inhibition ([1]; listed as Biotinol-AMP),Mechanism of HLCS inhibition ([1]; listed as β-KetoP),Mechanism of HLCS inhibition ([1]; listed as β-HydroxyP),Structure (SMILES),"HLCS inhibition (negative control, in words) [2]",apparent Vmax with inhibitor [1]
mixed,mixed inhibitor,–,–,"Nc1ncnc2c1ncn2[C@@H]1O[C@H](COP(=O)(O)OCCCCC[C@@H]2SC[C@@H]3NC(=O)N[C@@H]32)[C@@H](O)[C@H]1O [biotinol-5'-AMP, biotinol-5′-AMP, reference compound]",–,–
–,–,–,–,COP(=O)(O)CC(=O)CCCC[C@@H]1SC[C@@H]2NC(=O)N[C@@H]21 [compound 3],did not inhibit HLCS,–
competitive,–,competitive inhibitor,–,"N.Nc1ncnc2c1ncn2[C@@H]1O[C@H](COP(=O)(O)CC(=O)CCCC[C@@H]2SC[C@@H]3NC(=O)N[C@@H]32)[C@@H](O)[C@H]1O [β-ketoP, biotin β-ketophosphonate-5′-AMP]",–,31.5±1.6 pmol biotinylated p67/(nmol HLCS x s)
competitive,–,–,competitive inhibitor,"N.Nc1ncnc2c1ncn2[C@@H]1O[C@H](COP(=O)(O)CC(O)CCCC[C@@H]2SC[C@@H]3NC(=O)N[C@@H]32)[C@@H](O)[C@H]1O (stereo partly drawn) [β-hydroxyP, biotin β-hydroxyphosphonate-5′-AMP]",–,20.6±1.8 pmol biotinylated p67/(nmol HLCS x s)
